Laboratory results taken from patent US4634709A, “Platelet aggregation inhibitory agents and intermediates therefor” (Research Corporation, priority 1984, dated 1987).
Counter-ions that a name gives are not always drawn. Like-named read-outs stand apart in the source and are kept apart here.

What was measured:
[1] = system: human blood platelet aggregation, ADP-induced; experiment: Inhibition of ADP-induced human blood platelet aggregation (aggregometry, platelet-rich plasma); assay type: cell-based; conditions: for inhibition at 100 µM: read-out: % inhibition of aggregation, ADP-induced; for inhibition at 500 µM: 500 μM evaluant; for inhibition at 50 µM: 50 μM evaluant, % reduction in maximal aggregation intensity vs control
Method: (§1) Adenosine diphosphate (ADP) used to induce platelet aggregation was employed as the sodium salt. A 10 mM stock solution was prepared fresh before each use in modified Tyrode's buffer and working dilutions were prepared with modified Tyrode's buffer immediately prior to use. The buffer contained NaCl (137.00 mM), KCl (2.70 mM), NaHCO3 (11.90 mM), NaH2 PO4.H2 O (0.36 mM) and glucose (5.60 mM) in redistilled water. Adjustment to pH 7.4 was effected by addition of 1N HCl. A solution of highly purified human α-thrombin (10,624 units/ml) wss stored at -70° C. in 10 μl aliquots. The latter were diluted with modified Tyrode's buffer to a concentration of 10.0 units/ml immediately prior to use.
(§2) Venous blood for the examples set forth below was collected in plastic syringes from healthy male volunteers (aged 21-30 years) who had fasted overnight and had abstained from all medications, alcohol, tobacco and caffeine for a period of at least one week prior to donations. In experiments employing ADP as the aggregation-inducing agent, the blood was transferred into siliconized centrifuge tubes containing 3.2% sodium citrate (blood/citrate ratio 8:1); in thrombin-induced aggregations, 3.8% sodium citrate (blood/citrate ratio 9:1) was used. The cirtrated whole blood was centrifuged at 120×g for 15 minutes at 23° C., yielding platelet-rich plasma (PRP); platelet-poor plasma (PPP) was obtained by centrifugation of citrated whole blood at 1,100×g for […] at 23° C. The platelet count of PRP was determined and adjusted to a final count of 300,000 platelets per mm^3 by dilution with autologous PPP. (Occasionally, blood from a given donor yielded PRP with a count lower than the stipulated figure; however, this was usually greater than 285,000, and never less than 250,000 platelets per mm^3.) The plasma so obtained was transferred in 1.2-ml aliquots to siliconized glass tubes, by means of a siliconized Pasteur pipet. In order to maintain plasma pH in the appropriate range, the air in the tubes was displaced gently (1 minute) with a 5% CO2 -95% air (v/v) mixture and the tubes sealed with Parafilm according to the method of Han et al, Br. J. Haematol. Vol. 26, pages 373-389 (1974). The plasma was maintained at 37° C. in a water bath until used in the aggregation experiments.
Assays of platelet aggregation was performed at least in duplicate, using plasma acquired from different donors, employing a method developed by Quintana et al (Quintana et al, Thromb. Res., Vol. 22, pages 665-680 (1981); Quintana et al, Thromb. Res., Vol. 20, pages 405-415 (1980) (cf. Born, Nature, Vol. 194, pages 927-929 (1962) and Mustard et al, J. Lab. Clin. Med., Vol. 64, pages 548-559 (1964)).
Initially, in each experiment, 0.45-ml aliquots of PRP were placed in siliconized cuvettes and stirred (1,100 rpm) in the aggregometer at 37° C. to ascertain the absence of spontaneous aggregation. Appropriate ADP solutions (50 μl) were subsequently injected using a Hamilton microliter syringe to determine the minimal concentration eliciting maximal biphasic aggregation. This ranged from 2 μM to 8 μM (cf. Quintana et al, Thromb. Res., Vol. 22, pages 665-680 (1981); Quintana et al, Thromb. Res., Vol. 20, pages 405-415 (1980)). In each case, the concentration of ADP so determined was used in eliciting aggregation throughout each specific set of aggregometric evaluations. In all thrombin-induced aggregation experiments the same stimulus was applied; this constituted injection of 50 μl of the solution containing 10.0 units of α-thrombin/ml (affording a final concentration of 1.0 unit of α-thrombin/ml PRP).
0.5 μl of a solution of the evaluant compound in redistilled 95% ethanol was injected into a stirred (1,100 rpm) 0.45-ml aliquot of plasma in a siliconized cuvette in the aggregometer-well (37° C.). After 15 seconds, the cuvette was transferred to an incubator (also at 37° C.) and the contents held at this temperature, without stirring, until 2 minutes post-injection. […]

[2] = system: platelet aggregation, ADP-induced; conditions: cited from earlier work
[3] = system: human blood platelet aggregation, thrombin-induced; experiment: Inhibition of thrombin-induced human blood platelet aggregation (aggregometry, platelet-rich plasma); assay type: cell-based; conditions: for % inhibition of aggregation, thrombin-induced: 50 μM evaluant, human PRP, 1.0 unit α-thrombin/ml PRP
Method: as §1
as §2, with “experiments. […]” for “experiments.”
Initially, in each experiment, 0.45-ml aliquots of PRP were placed in siliconized cuvettes and stirred (1,100 rpm) in the aggregometer at 37° C. to ascertain the absence of spontaneous aggregation. […] In each case, the concentration of ADP so determined was used in eliciting aggregation throughout each specific set of aggregometric evaluations. […]

[4] = literature; cited from earlier work
[5] = system: patient's platelets; conditions: Walder et al; cited from earlier work
[6] = Platelet, 100 μM evaluant, human PRP

SMILES: C[N+]1(CCCCCCCCCC[N+]2(C)CCCCC2)CCCCC1 [Example 33, 1,10-Bis(N--methylpiperidinium)decane Diiodide]
- inhibition at 100 µM ([1]; Homo sapiens, Platelet): 0%

SMILES: CN(CCN(C)C(=O)C1CCCNC1)C(=O)C1CCCNC1 (stereo not shown) [Example 39, 1,2-Bis(N-nipecotoyl-N-methylamino)ethane dihydrobromide]
- inhibition at 500 µM ([1]; Platelet, human PRP): 46.3%

SMILES: O=C1C(CC[S+]([O-])c2ccccc2)C(=O)N(c2ccccc2)N1c1ccccc1 (stereo not shown) [sulfinpyrazone]
- inhibition in ADP-induced aggregation ([2]; 2,470 μM, Packham et al): 0%

SMILES: CCCCCCCCCCCCCCN1CCCc2cc(O)ccc21 [Example 12, 1-Tetradecyl-6-hydroxy-1,2,3,4-tetrahydroquinoline Hydriodide]
- inhibition at 50 µM ([1]; Platelet, human PRP): 0%

SMILES: CCCCCCCCN(C)C(=O)C1CCCN(C)C1 (stereo not shown) [Example 22, 1-Methyl-3-(N--methyl-N--octylcarbamoyl)piperidine Hydriodide]
- inhibition at 100 µM [1, 6]: 33.1%

SMILES: CCCCN(CCCC)C(=O)C1CCCN(Cc2ccc(CN3CCCC(C(=O)N(CCCC)CCCC)C3)cc2)C1 (stereo not drawn) [Example 14, α,α'-Bis[3-(N,N--dibutylcarbamoyl)piperidino]-p-xylene Dihydrobromide]
- inhibition at 50 µM ([1]; Platelet, human PRP): 49.7%

SMILES: CCCCCCCCCCN1CCCC(C(=O)N(C)CCN(C)C(=O)C2CCCN(CCCCCCCCCC)C2)C1 (stereo not shown) [Example 40, 1,2-Bis[N--(1-decylnipecotoyl)-N--methylamino]ethane Dihydriodide]
- inhibition at 50 µM ([1]; Platelet, human PRP): 82.6%

SMILES: CCCCCCCCN(C)C(=O)c1cccnc1 [Example 20, N--Methyl-N--octylnicotinamide]
- inhibition at 100 µM [1, 6]: 12.1%

SMILES: CCCCCCCCN(C)C(=O)C1CCCNC1 (stereo not shown) [Example 21, N--Methyl-N--octylnipecotamide]
- inhibition at 100 µM [1, 6]: 49.9%

SMILES: c1ccc2c(c1)CCN(Cc1ccc(CN3CCc4ccccc4C3)cc1)C2 [Example 2, α,α'-Bis(1,2,3,4-tetrahydroisoquinolino)-p-xylene Dihydrobromide]
- inhibition at 50 µM ([1]; Platelet, human PRP): 0%
- ADP-induced platelet aggregation inhibition, in words ([1]; Table 1 footnote 5): inactive

SMILES: CCCCCCN1CCCC(C(=O)N(C)CCN(C)C(=O)C2CCCN(CCCCCC)C2)C1 (stereo not shown) [Example 41, 1,2-Bis[N--(1-hexylnipecotoyl)-N--methylamino]ethane Dihydriodide]
- inhibition at 50 µM ([1]; Platelet, human PRP): 71.6%

SMILES: CCCCN(CCCC)C(=O)C1CCCN(C)C1 (stereo not shown) [Example 23, 1-Methyl-3-(N,N--dibutylcarbamoyl)piperidine Hydriodide]
- inhibition at 100 µM [1, 6]: 11.8%

SMILES: CCCCCCCCCCN(CCCCCCCCCC)C(=O)C1CCCN(Cc2ccc(CN3CCCC(C(=O)N(CCCCCCCCCC)CCCCCCCCCC)C3)cc2)C1 (stereo not drawn) [Example 16, α,α'-Bis[3-(N,N--didecylcarbamoyl)piperidino]-p-xylene Dihydrobromide]
- inhibition at 50 µM ([1]; Platelet, human PRP): 0%

SMILES: OCCN(CCO)c1nc(N2CCCCC2)c2nc(N(CCO)CCO)nc(N3CCCCC3)c2n1 [dipyridamole]
- inhibition in ADP-induced aggregation ([2]; 250 μM, Cucuiani et al): 10%

SMILES: CCCCCCN1CCCc2cc(O)ccc21 [Example 11, 1-Hexyl-6-hydroxy-1,2,3,4-tetrahydroquinoline Hydriodide]
- inhibition at 50 µM ([1]; Platelet, human PRP): 37.2%
- inhibition at 100 µM [1, 6]: 45.9%

SMILES: CCCCCCCCCCN1CCCC(C(=O)N(CCCC)CCCCCCN(CCCC)C(=O)C2CCCN(CCCCCCCCCC)C2)C1 (stereo not shown) [Example 43, 1,6-Bis[N--(1-decylnipecotoyl)-N--butylamino]hexane Dihydriodide]
- inhibition at 50 µM ([1]; Platelet, human PRP): 38.6%

SMILES: CCCCCCCCCCN1CCCC(C(=O)N2CCN(C(=O)C3CCCN(CCCCCCCCCC)C3)CC2)C1 (stereo not shown) [Example 37, N,N'--Bis(1-decylnipecotoyl)piperazine Dihydriodide]
- % inhibition of aggregation, thrombin-induced [3]: 88.2%
- inhibition at 10 µM ([1]; Platelet, 10 μM evaluant, human PRP): 48.3%
- inhibition at 50 µM ([1]; Platelet, human PRP): 93.8%

SMILES: O=C(C1CCCNC1)N1CCN(C(=O)C2CCCNC2)CC1 (stereo not shown) [Example 35, N,N'--Bis(nipecotoyl)piperazine Dihydrobromide]
- inhibition at 500 µM ([1]; Platelet, human PRP): 48.9%

SMILES: CCCCCCCCCCN1CCCc2cc(O)ccc21 [Example 9, 1-Decyl-6-hydroxy-1,2,3,4-tetrahydroquinoline Hydriodide]
- inhibition at 50 µM ([1]; Platelet, human PRP): 33%

SMILES: CN1CCCC(C(=O)NCCCCCCCCCCNC(=O)C2CCCN(C)C2)C1 (stereo not shown) [Example 28, 1,10-Bis[N--(1-methylnipecotoyl)amino]decane Dihydriodide]
- inhibition at 50 µM ([1]; Platelet, human PRP): 30.9%

SMILES: CN1CCCC(C(=O)NCCCCCCNC(=O)C2CCCN(C)C2)C1 (stereo not shown) [Example 31, 1,6-Bis[N--(1-methylnipecotoyl)amino]hexane Dihydriodide]
- inhibition at 500 µM ([1]; Platelet, human PRP): 17%

SMILES: CN(C)CCCN1c2ccccc2Sc2ccc(Cl)cc21 [chloropromazine, reference compound]
- effectiveness in thrombin-induced aggregation compared with the piperidine derivatives ([3]; in words, FIG. 2): much less effective
- effectiveness in ADP-induced aggregation compared with the piperidine derivatives ([1]; in words): considerably less effective

SMILES: O=C(O)C1CCCNC1 (stereo not shown) [nipecotic acid, Piperidine-3-carboxylic acid]
- deleterious / adverse effects [4]: has not been discerned to have deleterious effects

SMILES: CCCCCCN1CCCC(C(=O)N(CCCC)CCCCCCN(CCCC)C(=O)C2CCCN(CCCCCC)C2)C1 (stereo not shown) [Example 44, 1,6-Bis[N--(1-hexylnipecotoyl)-N--butylamino]hexane Dihydriodide]
- inhibition at 50 µM ([1]; Platelet, human PRP): 72.4%

SMILES: CCCCCCCCCCN1CCCC(C(=O)N(C)CCCCCCN(C)C(=O)C2CCCN(CCCCCCCCCC)C2)C1 (stereo not shown) [Example 42, 1,6-Bis[N--(1-decylnipecotoyl)-N--methylamino]hexane Dihydriodide]
- % inhibition of aggregation, thrombin-induced [3]: 88.3%
- inhibition at 50 µM ([1]; Platelet, human PRP): 85.6%

SMILES: CCCCCCCCCCNC(=O)C1CCCN(Cc2ccc(CN3CCCC(C(=O)NCCCCCCCCCC)C3)cc2)C1 (stereo not drawn) [Example 19, α,α'-Bis[3-(N--decylcarbamoyl)piperidino]-p-xylene Dihydrobromide]
- inhibition at 50 µM ([1]; Platelet, human PRP): 0%

SMILES: Oc1ccc2c(c1)CCCN2Cc1ccc(CN2CCCc3cc(O)ccc32)cc1 [Example 5, α,α'-Bis(6-hydroxy-1,2,3,4-tetrahydroquinolino)-p-xylene Dihydrobromide]
- inhibition at 50 µM ([1]; Platelet, human PRP): 21.5%

SMILES: CCCCN(CCCC)C(=O)c1cccnc1 [Example 13, N,N--Dibutylnicotinamide]
- inhibition at 100 µM [1, 6]: 0%

SMILES: CC(=O)Oc1ccccc1C(=O)O [aspirin, reference compound]
- % inhibition of aggregation, thrombin-induced [3]: 9%
- inhibition at 50 µM ([1]; Platelet, human PRP): 24%
- effect on patient's platelets [5]: incapacitate the patient's platelets for the rest of their life span
- deleterious / adverse effects [4]: severe enough to counsel against its use by survivors of myocardial infarction

SMILES: Oc1ccc2c(c1)CCCN2CCCCCCCCCCN1CCCc2cc(O)ccc21 [Example 7, 1,10-Bis(6-hydroxy-1,2,3,4-tetrahydroquinolino)decane Dihydriodide]
- inhibition at 50 µM ([1]; Platelet, human PRP): 25.9%

SMILES: CCCCCCCCCCNC(=O)C1CCCN(C)C1 (stereo not shown) [Example 25, 1-Methyl-3-(N--decylcarbamoyl)piperidine Hydriodide]
- inhibition at 100 µM [1, 6]: 45.6%
